Reference: patent publication US8637664B2, “Alkyl 4- [4- (5-oxo-2,3,5, 11a-tetrahydo-5H-pyrrolo [2, 1-c] [1,4] benzodiazepine-8-yloxy)-butyrylamino]-1H-pyrrole-2-carboxylate derivatives and related compounds for the treatment of a proliferative disease” (Spirogen SARL, priority 2005, dated 2014)

What was measured:
[1] = tested on: NF-Y binding at ICB2 of Topoisomerase IIα promoter; experiment: NF-Y gel shift assay (EMSA) at ICB2
[2] = tested on: NF-Y binding at ICB1 of Topoisomerase IIα promoter; experiment: NF-Y gel shift assay (EMSA) at ICB1
[3] = tested on: 170 bp sequence of the human Topo-IIa promoter; experiment: DNase I footprinting on Topo-IIa promoter (ICB1, ICB2 sites); format: binding; details: for Concentration at which DNA binding is observed, ICB1: ICB1 site; for Concentration at which DNA binding is observed, ICB2: ICB2 site
Protocol: In a similar manner to Example 4, the affinity and sequence selectivity of certain compounds of examples 1 and 2 was evaluated by standard DNA footprinting on a 170 bp sequence of the human Topo-IIa promoter, in accordance with the technique described in Martin, C., et al.
Selected results are shown in FIG. 9, wherein the concentrations of the lanes were 0, 1.6, 8, 40, 200, 1000, 5000 and 25000 nM in each case.
The footprinting results allowed the identification of compounds that could potentially disrupt transcription factor binding at the ICB1 and ICB2 sites. […] These compounds are detailed below in table 3, showing the concentrations (μM) at which the PBD-heterocycle conjugates bind at ICB1 and ICB2.

calf thymus DNA (CT-DNA) = experiment: DNA thermal denaturation (melting) studies; format: binding; details: CT-DNA 100 μM DNAp, compound 20 μM, 37 °C; for Induced ΔTm after incubation 0 hours: pH 7.00, 0 hours; for Induced ΔTm after incubation 4 hours: pH 7.00, 4 hours; for Induced ΔTm after incubation 18 hours: pH 7.00, 18 hours; for Induced ΔTm after incubation 72 hours: pH 7.00, 72 hours
Protocol: The PBD agents were subjected to DNA thermal melting (denaturation) studies (Gregson, S. J., et al., Journal of Medicinal Chemistry, 44(5), 737-748 (2001); Jones, G. B., et al., Anti-Cancer Drug Design, 5(3), 249-264 (1990); McConnaughie, A. W. and; Jenkins, T. C. Journal of Medicinal Chemistry, 38(18), 3488-3501 (1995)) using calf thymus DNA (CT-DNA, type-1, highly polymerized sodium salt; 42% G+C [Sigma]) at a fixed 100 μM (DNAp=50 μM bp) concentration, determined using an extinction coefficient of 6600 (M phosphate)^−1 cm^−1 at 260 nm (Manzini, G., et al., Nucleic Acids Research, 11(24), 8861-8876 (1983)). Solutions were prepared in pH 7.00±0.01 aqueous buffer containing 10 mM NaH2PO4/Na2HPO4 and 1 mM EDTA. Working solutions containing CT-DNA and the test compound (20 μM) were incubated at 37.0±0.1° C. for 0 to 18 hours using an external water bath. Samples were monitored at 260 nm using a Varian-Cary 400 Bio spectrophotometer fitted with a Peltier heating accessory. Heating was applied at a rate of 1° C./min in the 45 to 98° C. temperature range, with optical and temperature data sampling at 200 ms intervals. A separate experiment was carried out using buffer alone, and this baseline was subtracted from each DNA melting curve before data treatment. Optical data were imported into the Origin 5 program (MicroCal Inc., Northampton, Mass.) for analysis. DNA helix→coil transition temperatures (Tm) were determined at the midpoint of the normalized melting profiles using a published analytical procedure (Jones, G. B., et al., Anti-Cancer Drug Design, 5(3), 249-264 (1990)). Results are given in table 1 as the mean±standard deviation from at least three determinations. Ligand-induced alterations in DNA melting behaviour (ΔTm) are given by ΔTm=Tm(DNA+ligand)−Tm(DNA), where the Tm value determined for free CT-DNA is 67.82±0.06° C. (averaged from >90 runs). All PBD compounds were dissolved in HPLC-grade MeOH to give working solutions containing ≦0.6% v/v MeOH; Tm results were corrected for the effects of MeOH co-solvent by using a linear correction term.
The above method was also carried out on the compounds of example 2, with all compounds being incubated for up to 72 hours.

human c-myc oncogene = details: read-out: IC50 to arrest PCR of the c-myc gene; cited from earlier work
HIV-1 LTR = details: read-out: IC50 to arrest PCR of the HIV gene; cited from earlier work

Row | SMILES | Lowest concentration at which NF-Y binding inhibition was observed [1] | Lowest concentration at which NF-Y binding inhibition was observed [2] | Concentration at which DNA binding is observed, ICB1 [3] | Concentration at which DNA binding is observed, ICB2 [3] | Induced ΔTm after incubation 0 hours (calf thymus DNA (CT-DNA)) | Induced ΔTm after incubation 4 hours (calf thymus DNA (CT-DNA)) | Induced ΔTm after incubation 18 hours (calf thymus DNA (CT-DNA)) | Induced ΔTm after incubation 72 hours (calf thymus DNA (CT-DNA)) | IC50 (human c-myc oncogene) | IC50 (HIV-1 LTR)
1 | COC(=O)c1cc(NC(=O)c2cc(NC(=O)c3csc(NC(=O)CCCOc4cc5c(cc4OC)C(=O)N4CCC[C@H]4C=N5)n3)cn2C)cn1C [Compound 69] | 10 µM | 50 µM | 5 µM | 5 µM | 16.4 °C | 17.4 °C | 18.2 °C | 18.5 °C | – | –
2 | CCOC(=O)c1nc(NC(=O)c2nc(NC(=O)c3cc(NC(=O)CCCOc4cc5c(cc4OC)C(=O)N4CCC[C@H]4C=N5)cn3C)cn2C)cn1C [Compound 91] | 50 µM | did not inhibit NF-Y binding | 5 µM | 5 µM | 16.8 °C | 17.6 °C | 18.7 °C | 18.8 °C | – | –
3 | Cn1cc(NC(=O)c2cc(NC(=O)c3cc(NC=O)cn3C)cn2C)cc1C(=O)NCCC(=N)N [distamycin A] | – | – | – | – | – | – | – | – | 25 µM | 50 µM
